Tests used:
[1] = tested on: Rosa hybrida 'Pailin' explants; assay: Early shoot senescence of tissue cultured roses; assay type: in vivo; conditions: for relative number of dead plants in relation to culture time: 10 μM in medium
Experimental: Rosa hybrida ‘Pailin’ (a cut rose) was cultured in 350 ml vessels with a screw on polycarbonate lid. Each culture vessel contained 100 ml autoclaved medium (120° C., 20 min). The cultures were maintained at 23±2° C. under a 16 h photoperiod at 40 μM m^−2 s^−1 PAR. The basal medium (BMR) contained Murashige and Skoog (1962) macroelements, microelements and vitamins, 36.7 mg/l NaFeEDTA, 50 mg/l NaFeEDDHA, 100 mg/l […] myo-inositol, 30 g/l sucrose, 100 mg/l glycine, 50 mg/l calcium pantothenate, 100 mg/l L-glutamine and 7 g/l agar-agar. This medium was supplemented with 10 μM BA, mT and mMeOBAP. The last 2 cytokinins were filter sterilised and added after autoclaving the medium in the vessels. The control medium didn't contain any cytokinin. After a culture period of 6 weeks, scoring senescence symptoms was started.

human skin fibroblasts [2] = assay: Apoptosis assay in treated skin fibroblasts; assay type: cell-based; conditions: 3 days of treatment; ortho 200 μM
[3] = tested on: lysosomes of fibroblast cells; assay: Lysosomal activity, neutral red uptake; assay type: cell-based, human; conditions: pre-treated fibroblasts
Experimental: Neutral Red is preferentially taken up into the lysosomes of the cell. Fibroblast cells are maintained in culture and exposed to test compounds over a range of concentrations. The cultures are visually examined after 72 hours, and the number of viable cells and/or the total cell protein content determined, after 72 hours exposure, by the Neutral Red Uptake method. Advantage of Neutral Red assay is that it detects only viable cells. Any chemical having a localized effect upon the lysosomes will, therefore, result in an artificially low (or possibly high) reflection of cell viability and cell number. This factor does, however, make the system useful to detect those compounds which selectively affect the lysosomes, especially when it is used in conjunction with other tests capable of determining cell number.
The NR assay has been applied to evaluation and ranking the cytotoxicity of a spectrum of compounds. Individual wells of a 96-well tissue culture microtiter plate were inoculated with 0.2 ml of the appropriate media containing cells (usually 3×10^3 cells). After 1 to 2 days of incubation, the media were removed and replaced with unamended (control) medium or with medium amended with varied concentrations of the compound to be tested. After 3 days of exposure to the compound, media were removed and replaced with media containing 0.001% NR. The assay plate was then returned to the incubator for another 3 h to allow for uptake of the supravital dye into the lysosomes of viable cells. Thereafter, the media were removed and the cells were rapidly washed with 0.5% formaldehyde-1% CaCl2 followed by 0.2 ml of a solution of 1% acetic acid-50% ethanol to extract the dye from the cells. After 10 min at room temperature and a brief but rapid agitation on a microtiter plate shaker, the plates were transferred to a microplate spectrophotometer equipped with a 540-nm filter to measure the absorbance of the extracted dye.
The toxicities of the various compounds were compared with those of the control cultures by computing the data obtained.

proteasome = assay: Proteasomal chymotrypsin-like activity in cell extracts of treated cells; assay type: cell-based, human; conditions: 40, 80 and 200 μM
Experimental: Chymotrypsin-like activity in cell extracts prepared from treated and untreated cells was determined by in vitro degradation of oligopeptides by the proteasome.

[4] = tested on: senescent human skin fibroblasts; assay: Numbers of surviving senescent cells (Coulter counter); assay type: cell-based; conditions: 7 to 14 days of treatment
Experimental: Equal numbers of senescent cells were seeded in separate flasks and were treated with different concentrations of para-topolin. Cell numbers were determined by using a Coulter counter after trpsinization and resuspension of cells after 7 and 14 days of treatment.
Equal numbers of senescent cells were seeded in separate flasks and were treated with different concentrations of ortho-topolin. Cell numbers were determined by using a Coulter counter after trypsinisation and resuspension of cells, after 7 and 14 days of treatment.

[5] = tested on: human adult skin fibroblasts; assay: Short-term growth of human skin fibroblasts (cell counts, Giemsa); assay type: cell-based; conditions: for Cell growth versus untreated: 40 μM and 80 μM; for Cell proliferation (summary): all concentrations (40, 80, 200 and 500 μM); for appearance of dermal cells (summary): all doses 40, 80, 200 and 500 μM; for Cellular growth at higher concentrations: para 200 to 500 μM after 11 days, ortho 200 and 400 μM after 7 days, meta 400 μM
Experimental: (§1) All experiments were performed on early and mid passage cultures (about 20 to 40% lifespan completed) of normal human adult skin fibroblast line; designated ASF-2 & Senetek cell line (about 10-90% lifespan completed); designated as SF20. In order to check the effects of test compounds on senescent cells, late passage cells with more than 95% lifespan completed were used. ASF-2 and SF20 cell lines were established from a mammary skin biopsy obtained from a young, non-smoking and healthy […] at the time of breast reduction operation. Normal culture conditions of medium (DMEM) containing antibiotics, 10% foetal calf serum, and incubation at 37° C. with 95% humidity were used. The effects of the test chemicals were determined in the following conditions:
Short-term growth experiments were performed using 24-well tissue culture plates (growth area 1.9 cm^2). Freshly prepared cell suspensions from mass cultures of ASF-2 cells maintained in our labs were used. About 10,000 cells were seeded into 6 sets of 24-well plates. The cells were allowed to attach and stabilize for 24 hr in normal culture medium to achieve various final concentrations (range 40 to 500 μM). Culture medium was changed with the addition of test chemicals twice a week. The numbers of cells were counted after different days of treatment in 2 wells from each concentration of the test chemical, by following the normal method of cell trypsinization and counting using a Coultercounter. The third well in each category was fixed by cold methanol and stained with Giemsa stain for permanent record and for photography. The experiment was carried on for until the cultures became fully confluent and no further growth was possible.

human skin fibroblasts [6] = assay: Series of experiments on short-term effects on human skin fibroblasts, conclusion; assay type: cell-based; conditions: para at a dose of 40 μM
Experimental: as §1
The experiments were performed to determine the effects of short-term treatment of ortho-topolin, meta-topolin, and para-topolin on cell attachment, survival, growth, apoptosis, actin cytoskeletal pattern, lysosomal activity, proteasomal activity and morphology of human skin fibroblasts in culture.

human skin fibroblasts [7] = assay: Cell survival, MTT assay; assay type: cell-based; conditions: 3 days
Experimental: Cell survival after exposure to various doses was measured with the 3-(4,5 dimethylthiazol-2-yl)-2,5-diphenyltetrazolium bromide (MTT) assay. About 5,000 cells were seeded per well in a 96-well plate 24 h before the experiment. Cells were then treated with various doses of the compound to be tested. The wells were washed in Hank's and new medium was added. After three days, MTT (Sigma, M2128) was added at 0.5 mg/ml in medium. After 4 h, MTT was removed and isopropanol and HCl were added to dissolve the MTT crystals for 12-16 h. The absorbance at 595 nm was measured.

human skin fibroblasts [8] = assay: beta-galactosidase staining of treated skin fibroblasts; assay type: cell-based; conditions: short-term growth treatment

Row | Structure (SMILES) | relative number of dead plants in relation to culture time [1] | plants alive ([1]; 10 μM, after 121 days) | apoptosis assay (human skin fibroblasts [2]) | Cleaning up of cytoplasmic debris (macro-molecular turn-over rate), summary [3] | proteasomal activity (chymotrypsin-like), removal of oxidized and abnormal proteins (proteasome) | numbers of surviving senescent cells [4] | Cell growth versus untreated [5] | rate of growth ([5]; 200 μM) | Cell proliferation (summary) [5] | appearance of dermal cells (summary) [5] | Cellular growth at higher concentrations [5] | conclusion on short-term effects on human skin fibroblasts (human skin fibroblasts [6]) | cells that did survive treatment (human skin fibroblasts [7]) [%] | cells killed (human skin fibroblasts [7]; between 0.01 and 1 μM) | number of prematurely senescent cells, beta-galactosidase staining (human skin fibroblasts [8]) | reduction in cell survival (human skin fibroblasts [7]; 200-500 μM) | dose until which not cytotoxic / no toxic effect on survival (MTT) (human skin fibroblasts [7]; range 0.01-500 μM) [µM]
1 | COc1cccc(CNc2ncnc3nc[nH]c23)c1 [6-(3-methoxybenzylamino)purine] | the situation improved | almost all plants were still alive |  |  |  |  |  |  |  |  |  |  |  |  |  |  | 
2 | Oc1cccc(CNc2ncnc3nc[nH]c23)c1 [meta-topolin, 6-(3-hydroxybenzylamino)purine] | the situation improved |  | cell death at 40 μM and above | No such effective removal was observed | failed to show such an effect | reduces the number of surviving senescent cells in a dose dependent manner | almost similar | slowed down | declined to a significant extent | morbid in appearance | almost no growth | little or no beneficial effects | 60 | about 40% |  |  | 
3 | Oc1ccccc1CNc1ncnc2nc[nH]c12 [ortho-topolin, 6-(2-hydroxybenzylamino)purine] |  |  | some induction of apoptosis | No such effective removal was observed | failed to show such an effect | reduces the number of surviving senescent cells significantly | almost similar |  | declined to a significant extent | morbid in appearance | almost a total inhibition | little or no beneficial effects |  |  | did not show any increase | 10-20% | 100

— patent publication US8552013B2, “Heterocyclic compounds based on N6-substituted adenine, methods of their preparation, their use for preparation of drugs, cosmetic preparations and growth regulators, pharmaceutical preparations, cosmetic preparations and growth regulators containing these compounds” (USTAV Experimentalni Botaniky Akademie Ved Ceske Republiky, priority 2001, dated 2013)
